Test system: recombinant 6xHis-tag HTRA2 and its protein interaction partners in homogenized porcine retina
Assay: Co-immunoprecipitation (Co-IP) of HTRA2 protein interaction partners, quantitative LC-MS/MS (iBAQ, volcano plot vs CTRL beads)
Design: species or system house swine (Sus scrofa)
Conditions: 2 µg HTRA2 + 10 µg compound, n = 3, vs CTRL beads
Protocol: The retina extraction and homogenization were performed as already described in previous publications. The use of animal by-products of house swine for scientific research purposes was approved by the Kreisverwaltung Mainz-Bingen in Germany (Identification Code: DE 07 315 0006 21, approved on 13 January 2014). In brief, retinal tissues were extracted from freshly removed porcine eye bulbs (house swine, Sus scrofa domestica Linnaeus, n = 30) provided by the local slaughterhouses (Landmetzgerei Harth, Stadecken-Elsheim, Germany). Afterwards, the retinal tissues were homogenized in 2 mL screw cap microtubes filled with 1.4/2.8 mm ceramic beads and 1 mL Tissue Protein Extraction Reagent (T-PER, Thermo Fisher Scientific, Rockford, IL, USA) using a Percellys® 24 homogenizer (VWR International GmbH, Darmstadt, Germany). The homogenized retinal samples were then centrifuged at 14,000× g for 15 min at 4 °C. The protein-containing supernatant was exchanged in a 100 µL phosphate-buffered saline (PBS) using a 3 kDa Amicon® filtration unit (Millipore, Billerica, MA, USA) and, prior to this, was extensively washed in order to completely remove traces of the T-PER buffer. Afterwards, the samples were pooled and the protein concentration was determined using a Pierce Bicinchoninic Acid (BCA) Protein Assay Kit (Thermo Fisher Scientific, Rockford, IL, USA) according to the manufacturer’s protocol, which provided 5 mg aliquots for further analysis.
The recombinant protein HTRA2 with a C-terminal 6xHis-tag motif (Novoprotein Scientific INC., Summit, NJ, USA) and 40 μL HisPurTM Ni-NTA magnetic beads (Thermo Fisher Scientific, Rockford, IL, USA) were spiked into 5 mg homogenized porcine retina. The experiment comprised of four groups: control homogenate (CTRL group), homogenate with 2 μg recombinant HTRA2 (HTRA2 group), homogenate with 2 μg recombinant HTRA2 and 10 μg UCF-101 (UCF-101 group), and homogenate with 2 μg recombinant HTRA2 and 10 μg synthetic CDR peptide (CDR group). The Co-IP of the recombinant HTRA2 and the enrichment of the respective interaction partners was performed with three independent biological replicates for each group (CTRL, HTRA2, UCF-101, and CDR group). After incubation at 4 °C overnight, the 6xHis-tagged protein HTRA2 with the bounded protein interaction partners (co-immunoprecipitation) was isolated with the previously added HisPurTM Ni-NTA magnetic beads (Thermo Fisher Scientific, Rockford, IL, USA) using a magnetic stand. Each bead group was washed twice with 400 μL PBS and the bounded HTRA2 including the protein interaction partners were eluted by pH shift. The protein concentration of each eluate fraction was determined as described above. Afterwards, 50 μg of each eluate fraction was evaporated using a speed vacuum concentrator (SpeedVac) (Eppendorf, Hamburg, Germany) for 45 min at 30 °C and was stored afterwards at −20 °C.
The protein eluate fractions of each group (50 μg; n = 3 biological replicates per group) were separated by 1D SDS PAGE on 10-well NuPAGE® 12% Bis-Tris gels using NuPAGE™ MOPS SDS Running Buffer 20X (Thermo Fisher Scientific, Rockford, IL, USA). The 1D SDS PAGE was performed with the XCell SureLock^TM Mini-Cell Electrophoresis System (Thermo Fisher Scientific, Rockford, IL, USA) under denatured and reduced conditions, as already described in previous publications. The protein separation was performed for 2 h at 4 °C using 150 V, and then the gels were stained with the Novex Colloidal Blue Staining Kit (Thermo Fisher Scientific, Rockford, IL, USA) according to the manufacturer’s protocol. The next day, the gels were destained overnight and scanned using a DGP-9042 scanner (Brother Industries, Nagoya, Japan) at 600 dpi. In-gel trypsin digestion was performed as already described in previous publications. In brief, each protein lane was divided into 17 slices and was subsequently cut into small pieces. […]

## O=C1C(=Cc2ccc(-c3ccccc3[N+](=O)[O-])o2)C(=O)N(c2ccccc2)C(=S)N1c1ccccc1 [UCF-101, reference compound]
HTRA2 alone: -
  FGF2 (Fibroblast growth factor 2) as significant interaction partner of HTRA2: √ (Proteins fulfilled filtering criteria (p < 0.01; log2 fold change > 1.5))
  FTH1 (Ferritin heavy chain) as significant interaction partner of HTRA2: √ (Proteins fulfilled filtering criteria (p < 0.01; log2 fold change > 1.5))
  GTF2F2 (General transcription factor IIF subunit 2) as significant interaction partner of HTRA2: √ (Proteins fulfilled filtering criteria (p < 0.01; log2 fold change > 1.5))
  NAPG (Gamma-soluble NSF attachment protein) as significant interaction partner of HTRA2: - (Proteins failed to fulfill the filtering criteria (p > 0.01; log2 fold change < 1.5))
  PDZD11 (PDZ domain-containing protein 11) as significant interaction partner of HTRA2: √ (Proteins fulfilled filtering criteria (p < 0.01; log2 fold change > 1.5))
  PGRMC1 (Membrane-associated progesterone receptor component 1) as significant interaction partner of HTRA2: √ (Proteins fulfilled filtering criteria (p < 0.01; log2 fold change > 1.5))
  PLRG1 (Pleiotropic regulator 1) as significant interaction partner of HTRA2: - (Proteins failed to fulfill the filtering criteria (p > 0.01; log2 fold change < 1.5))
  POLR2E (DNA-directed RNA polymerases I, II, and III subunit RPABC1) as significant interaction partner of HTRA2: - (Proteins failed to fulfill the filtering criteria (p > 0.01; log2 fold change < 1.5))
  PPA1 (Inorganic pyrophosphatase) as significant interaction partner of HTRA2: √ (Proteins fulfilled filtering criteria (p < 0.01; log2 fold change > 1.5))
  SFRP1 (Secreted frizzled-related protein 1) as significant interaction partner of HTRA2: - (Proteins failed to fulfill the filtering criteria (p > 0.01; log2 fold change < 1.5))
  TUBA1C (Tubulin alpha-1C chain) as significant interaction partner of HTRA2: - (Proteins failed to fulfill the filtering criteria (p > 0.01; log2 fold change < 1.5))
  UBE2N (Ubiquitin-conjugating enzyme E2 N) as significant interaction partner of HTRA2: √ (Proteins fulfilled filtering criteria (p < 0.01; log2 fold change > 1.5))
HTRA2 alone: n.d.
  CDC42 (Cell division control protein 42 homolog) as significant interaction partner of HTRA2: √ (Proteins fulfilled filtering criteria (p < 0.01; log2 fold change > 1.5))
  COPE (Coatomer subunit epsilon) as significant interaction partner of HTRA2: √ (Proteins fulfilled filtering criteria (p < 0.01; log2 fold change > 1.5))
  MRPL2 (39S ribosomal protein L2, mitochondrial) as significant interaction partner of HTRA2: - (Proteins failed to fulfill the filtering criteria (p > 0.01; log2 fold change < 1.5))
  SNX3 (Sorting nexin-3) as significant interaction partner of HTRA2: √ (Proteins fulfilled filtering criteria (p < 0.01; log2 fold change > 1.5))
  SOWAHA (Ankyrin repeat domain-containing protein SOWAHA) as significant interaction partner of HTRA2: - (Proteins failed to fulfill the filtering criteria (p > 0.01; log2 fold change < 1.5))
  TIMM13 (Mitochondrial import inner membrane translocase subunit Tim13) as significant interaction partner of HTRA2: √ (Proteins fulfilled filtering criteria (p < 0.01; log2 fold change > 1.5))
  TUBB8 (Tubulin beta-8 chain) as significant interaction partner of HTRA2: - (Proteins failed to fulfill the filtering criteria (p > 0.01; log2 fold change < 1.5))
HTRA2 alone: √
  ANK2 (Ankyrin-2) as significant interaction partner of HTRA2: - (Proteins failed to fulfill the filtering criteria (p > 0.01; log2 fold change < 1.5))
  AP2A1 (AP-2 complex subunit alpha-1) as significant interaction partner of HTRA2: - (Proteins failed to fulfill the filtering criteria (p > 0.01; log2 fold change < 1.5))
  AP3D1 (AP-3 complex subunit delta-1) as significant interaction partner of HTRA2: - (Proteins failed to fulfill the filtering criteria (p > 0.01; log2 fold change < 1.5))
  AUH (Methylglutaconyl-CoA hydratase, mitochondrial) as significant interaction partner of HTRA2: - (Proteins failed to fulfill the filtering criteria (p > 0.01; log2 fold change < 1.5))
  CS (Citrate synthase, mitochondrial) as significant interaction partner of HTRA2: - (Proteins failed to fulfill the filtering criteria (p > 0.01; log2 fold change < 1.5))
  CSTB (Cystatin-B) as significant interaction partner of HTRA2: - (Proteins failed to fulfill the filtering criteria (p > 0.01; log2 fold change < 1.5))
  DNAJA3 (DnaJ homolog subfamily A member 3, mitochondrial) as significant interaction partner of HTRA2: - (Proteins failed to fulfill the filtering criteria (p > 0.01; log2 fold change < 1.5))
  DTD1 (D-aminoacyl-tRNA deacylase 1) as significant interaction partner of HTRA2: - (Proteins failed to fulfill the filtering criteria (p > 0.01; log2 fold change < 1.5))
  EIF2S3 (Eukaryotic translation initiation factor 2 subunit 3) as significant interaction partner of HTRA2: - (Proteins failed to fulfill the filtering criteria (p > 0.01; log2 fold change < 1.5))
  FAM30A (Putative uncharacterized protein FAM30A) as significant interaction partner of HTRA2: - (Proteins failed to fulfill the filtering criteria (p > 0.01; log2 fold change < 1.5))
  FLNA (Filamin-A) as significant interaction partner of HTRA2: - (Proteins failed to fulfill the filtering criteria (p > 0.01; log2 fold change < 1.5))
  GDI1 (Rab GDP dissociation inhibitor alpha) as significant interaction partner of HTRA2: - (Proteins failed to fulfill the filtering criteria (p > 0.01; log2 fold change < 1.5))
  GLO1 (Lactoylglutathione lyase) as significant interaction partner of HTRA2: - (Proteins failed to fulfill the filtering criteria (p > 0.01; log2 fold change < 1.5))
  GNL1 (Guanine nucleotide-binding protein-like 1) as significant interaction partner of HTRA2: - (Proteins failed to fulfill the filtering criteria (p > 0.01; log2 fold change < 1.5))
  HAGH (Hydroxyacylglutathione hydrolase, mitochondrial) as significant interaction partner of HTRA2: - (Proteins failed to fulfill the filtering criteria (p > 0.01; log2 fold change < 1.5))
  HTRA2 (Serine protease HTRA2, mitochondrial; target protein) enriched: √ (Proteins fulfilled filtering criteria (p < 0.01; log2 fold change > 1.5))
  HYOU1 (Hypoxia up-regulated protein 1) as significant interaction partner of HTRA2: - (Proteins failed to fulfill the filtering criteria (p > 0.01; log2 fold change < 1.5))
  ME2 (NAD-dependent malic enzyme, mitochondrial) as significant interaction partner of HTRA2: - (Proteins failed to fulfill the filtering criteria (p > 0.01; log2 fold change < 1.5))
  NCKAP1 (Nck-associated protein 1) as significant interaction partner of HTRA2: - (Proteins failed to fulfill the filtering criteria (p > 0.01; log2 fold change < 1.5))
  PACS1 (Phosphofurin acidic cluster sorting protein 1) as significant interaction partner of HTRA2: - (Proteins failed to fulfill the filtering criteria (p > 0.01; log2 fold change < 1.5))
  POTEE (POTE ankyrin domain family member E) as significant interaction partner of HTRA2: - (Proteins failed to fulfill the filtering criteria (p > 0.01; log2 fold change < 1.5))
  PTGES3 (Prostaglandin E synthase 3) as significant interaction partner of HTRA2: √ (Proteins fulfilled filtering criteria (p < 0.01; log2 fold change > 1.5))
  SHMT2 (Serine hydroxymethyltransferase, mitochondrial) as significant interaction partner of HTRA2: - (Proteins failed to fulfill the filtering criteria (p > 0.01; log2 fold change < 1.5))
  SPTBN1 (Spectrin beta chain, non-erythrocytic 1) as significant interaction partner of HTRA2: - (Proteins failed to fulfill the filtering criteria (p > 0.01; log2 fold change < 1.5))
  UBE2V1 (Ubiquitin-conjugating enzyme E2 variant 1) as significant interaction partner of HTRA2: √ (Proteins fulfilled filtering criteria (p < 0.01; log2 fold change > 1.5))
